These results are taken from paper PMC3577944 (Nature chemical biology, 2013).

The target of one data set is T1, D381A 3MBT (Homo sapiens, UniProt Q96JM7, D381A).
T1 sequence (Q96JM7 225-555 D381A): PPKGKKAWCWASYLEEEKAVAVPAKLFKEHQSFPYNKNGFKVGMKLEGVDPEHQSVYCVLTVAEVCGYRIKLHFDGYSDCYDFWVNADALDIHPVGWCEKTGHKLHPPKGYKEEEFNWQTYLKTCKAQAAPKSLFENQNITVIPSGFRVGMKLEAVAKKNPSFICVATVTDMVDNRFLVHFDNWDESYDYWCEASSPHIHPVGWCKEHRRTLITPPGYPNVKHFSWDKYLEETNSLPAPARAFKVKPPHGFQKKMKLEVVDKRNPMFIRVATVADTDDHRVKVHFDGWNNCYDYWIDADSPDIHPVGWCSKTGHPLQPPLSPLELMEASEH
As to the kind of experiment: ITC, domain 2 mutant. As to conditions: domain 2 binding pocket mutant. (In ITC the heat of successive injections is recorded.)

Another data set has as its target T2, D274A 3MBT (Homo sapiens, UniProt Q96JM7, D274A).
T2 sequence (Q96JM7 225-555 D274A): T1 sequence (Q96JM7 225-555 D381A) with D50A, A157D
As to the kind of experiment: ITC, domain 1 mutant. Type of data set: binding.

The target of another data set is T3, H277A 3MBT (Homo sapiens, UniProt Q96JM7, H277A).
T3 sequence (Q96JM7 225-555 H277A): T1 sequence (Q96JM7 225-555 D381A) with H53A, A157D
As to the kind of experiment: ITC, H277A mutant. As to conditions: relative to wild-type. Type of data set: binding.

Data set [1] has as its system G9a, EHMT1, SUV39H2, PRMT3, SETD7, SETD8, DNMT1, MLL, PRC2, PRMT5. Put plainly: Histone methyltransferase selectivity, radioactive SAM methyl transfer. Type of data set: biochemical.
Data set [2] concerns Bromodomains (12 targets). As to the kind of experiment: Bromodomain selectivity, differential scanning fluorimetry. Type of data set: binding. As to conditions: at 10 µM versus 12 targets. For orientation: DSF heats the sample and reads unfolding from a dye or from intrinsic fluorescence.
Data set [3] concerns Histone demethylases (15 targets). As to the kind of experiment: Lysine demethylase selectivity, differential scanning fluorimetry. Type of data set: binding.
For another data set, the target named is T4, hM1 (Homo sapiens, UniProt P11229).
T4 sequence (P11229 1-460): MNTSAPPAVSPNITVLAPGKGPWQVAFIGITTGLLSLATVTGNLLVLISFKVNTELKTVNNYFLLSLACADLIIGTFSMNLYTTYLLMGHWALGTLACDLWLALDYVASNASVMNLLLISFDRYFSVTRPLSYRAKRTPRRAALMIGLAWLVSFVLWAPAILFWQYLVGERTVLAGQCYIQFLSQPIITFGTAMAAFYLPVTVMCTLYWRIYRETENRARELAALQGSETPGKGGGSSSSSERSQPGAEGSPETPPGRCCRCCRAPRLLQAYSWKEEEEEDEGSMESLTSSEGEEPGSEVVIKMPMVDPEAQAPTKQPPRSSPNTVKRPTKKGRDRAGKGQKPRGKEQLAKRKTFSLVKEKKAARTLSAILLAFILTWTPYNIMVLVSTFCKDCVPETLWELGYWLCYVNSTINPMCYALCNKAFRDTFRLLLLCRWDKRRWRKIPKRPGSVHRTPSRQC
Put plainly: M1 Ca2+ mobilization functional assay. Type of data set: cell-based. For orientation: Calcium flux is commonly read through the fluorescence of an indicator in the cells.

For a further data set, the target named is T5, hM2 (Homo sapiens, UniProt P08172).
T5 sequence (P08172 1-466): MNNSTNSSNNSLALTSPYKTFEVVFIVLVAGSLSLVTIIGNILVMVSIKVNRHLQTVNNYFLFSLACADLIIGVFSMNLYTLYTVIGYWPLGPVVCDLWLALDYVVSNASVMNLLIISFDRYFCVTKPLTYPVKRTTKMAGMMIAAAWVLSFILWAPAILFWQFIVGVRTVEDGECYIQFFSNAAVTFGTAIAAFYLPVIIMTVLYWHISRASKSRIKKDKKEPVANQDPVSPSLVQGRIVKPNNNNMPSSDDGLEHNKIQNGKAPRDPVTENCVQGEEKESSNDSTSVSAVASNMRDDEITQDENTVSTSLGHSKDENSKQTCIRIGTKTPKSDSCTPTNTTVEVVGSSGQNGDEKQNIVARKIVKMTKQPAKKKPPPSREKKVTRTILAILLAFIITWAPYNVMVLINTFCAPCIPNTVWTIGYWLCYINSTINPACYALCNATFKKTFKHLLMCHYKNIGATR
As to the kind of experiment: M2 cAMP biosensor functional assay. Type of data set: cell-based.

The test system of the next data set is HEK293T/17 cells. As to the kind of experiment: CellTiter-Glo luminescent cell viability assay. Type of data set: cell-based, human. As to conditions: up to 100 µM, 24 hours.
The target in data set [4] is T6, GFP-3MBT (L3MBTL3 MBT domains) in HEK293 cells (Homo sapiens, UniProt Q96JM7).
T6 sequence (Q96JM7 200-530 isoform Q96JM7-2 limits assumed): T1 sequence (Q96JM7 225-555 D381A) with A157D
As to the kind of experiment: FRAP of GFP-3MBT. Type of data set: cell-based.

The target in data set [5] is T7, GFP-FLMBT (full length L3MBTL3) (Homo sapiens, UniProt Q96JM7).
T7 sequence (Q96JM7 1-755 isoform Q96JM7-2): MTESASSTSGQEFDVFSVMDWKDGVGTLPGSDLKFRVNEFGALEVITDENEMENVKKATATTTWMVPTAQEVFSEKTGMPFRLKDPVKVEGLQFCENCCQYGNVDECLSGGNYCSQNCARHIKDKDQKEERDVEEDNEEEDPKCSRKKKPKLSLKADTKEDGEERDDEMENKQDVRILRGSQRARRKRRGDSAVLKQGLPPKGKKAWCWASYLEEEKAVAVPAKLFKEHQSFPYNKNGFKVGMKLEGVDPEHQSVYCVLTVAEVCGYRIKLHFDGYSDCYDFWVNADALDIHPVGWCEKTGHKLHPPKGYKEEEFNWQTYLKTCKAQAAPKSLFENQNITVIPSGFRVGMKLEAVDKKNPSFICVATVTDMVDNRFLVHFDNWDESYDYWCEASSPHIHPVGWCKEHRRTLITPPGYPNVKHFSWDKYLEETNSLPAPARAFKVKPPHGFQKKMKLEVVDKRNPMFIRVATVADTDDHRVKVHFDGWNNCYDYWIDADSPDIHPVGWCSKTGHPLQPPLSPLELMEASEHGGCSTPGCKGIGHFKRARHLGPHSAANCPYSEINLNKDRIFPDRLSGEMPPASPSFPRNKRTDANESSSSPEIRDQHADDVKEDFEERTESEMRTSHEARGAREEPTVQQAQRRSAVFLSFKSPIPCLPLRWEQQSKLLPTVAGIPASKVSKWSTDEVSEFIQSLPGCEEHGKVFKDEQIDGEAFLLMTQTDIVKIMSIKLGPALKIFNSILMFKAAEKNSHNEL
Put plainly: FRAP of GFP-FLMBT. Type of data set: cell-based. As to conditions: lesser extent than GFP-3MBT.

In data set [6] the target is T8, GFP-FLMBT foci in 293 or U2OS cells (Homo sapiens, UniProt Q96JM7).
T8 sequence (Q96JM7 1-755 isoform Q96JM7-2): T7 sequence (Q96JM7 1-755 isoform Q96JM7-2)
As to the kind of experiment: GFP-FLMBT nuclear foci formation. Type of data set: cell-based. The note with it: N-terminally tagged full length L3MBTL3.

Data set [7] has as its target T9, flag-3MBT / BCLAF1 interaction (Homo sapiens, UniProt Q96JM7).
T9 sequence (Q96JM7 225-555 limits assumed): T1 sequence (Q96JM7 225-555 D381A) with A157D
As to the kind of experiment: Co-immunoprecipitation of BCLAF1 with flag-3MBT. As to conditions: 1 μM, 18 hours, HEK293 cells. Type of data set: cell-based.

Data set [8] concerns the target T10, flag-FLMBT / BCLAF1 interaction (Homo sapiens, UniProt Q96JM7).
T10 sequence (Q96JM7 1-755 isoform Q96JM7-2): T7 sequence (Q96JM7 1-755 isoform Q96JM7-2)
Put plainly: Co-immunoprecipitation of BCLAF1 with flag-FLMBT. Type of data set: cell-based. As to conditions: 1 μM, 18 hours, HEK293 cells.

Data set [9] concerns the target T11, L3MBTL3 (3MBT) (Homo sapiens, UniProt Q96JM7).
T11 sequence (Q96JM7 168-555 limits assumed): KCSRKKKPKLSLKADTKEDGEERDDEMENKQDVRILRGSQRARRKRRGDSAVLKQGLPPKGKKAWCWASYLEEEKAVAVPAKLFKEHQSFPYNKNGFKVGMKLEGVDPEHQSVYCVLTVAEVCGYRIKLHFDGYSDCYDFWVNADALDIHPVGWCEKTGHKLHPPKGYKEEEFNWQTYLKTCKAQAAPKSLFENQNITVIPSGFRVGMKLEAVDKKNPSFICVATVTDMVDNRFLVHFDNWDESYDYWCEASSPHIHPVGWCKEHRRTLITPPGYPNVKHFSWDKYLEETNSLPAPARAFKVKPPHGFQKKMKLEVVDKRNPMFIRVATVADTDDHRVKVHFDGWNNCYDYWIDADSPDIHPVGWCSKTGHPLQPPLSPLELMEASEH
Put plainly: H4K20me2 peptide pull-down competition. The note with it: increasing concentrations.

A further data set concerns the target 53BP1 (Homo sapiens, UniProt Q12888). Put plainly: H4K20me2 peptide pull-down competition. As to conditions: increasing concentrations.
The target in data set [10] is T12, L3MBTL3 (3MBT) (Homo sapiens, UniProt Q96JM7).
T12 sequence (Q96JM7 225-555): T1 sequence (Q96JM7 225-555 D381A) with A157D
Type of data set: binding. As to conditions: similar affinity to H4K20me histone peptides.

Numbering of substitutions follows the chain as printed. Entries after “also recorded” stand apart in the source; their conditions may differ. No end group written: not given here. Bounds are passed on as bounds.

53BP1, sequence (Q12888 1459-1634): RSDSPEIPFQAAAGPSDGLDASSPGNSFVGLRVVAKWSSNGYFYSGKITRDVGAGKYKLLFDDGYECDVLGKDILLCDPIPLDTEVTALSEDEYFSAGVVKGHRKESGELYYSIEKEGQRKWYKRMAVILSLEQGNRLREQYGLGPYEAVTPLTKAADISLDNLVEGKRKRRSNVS

In the case of `O=C(c1ccc(C(=O)N2CCC(N3CCCC3)CC2)c(Nc2ccccc2)c1)N1CCC(N2CCCC2)CC1` [UNC1215], at D381A 3MBT, the “binding to D381A 3MBT by ITC, in words” value was “completely abolished; also recorded: completely abrogates binding”. The “binding diminished relative to wildtype, D274A 3MBT” value at D274A 3MBT is “about 30 fold”. In addition, on H277A 3MBT, the “binding to H277A 3MBT by ITC, in words” value was “marked loss of affinity”. Moreover, the “activity against panel of histone methyltransferases, in words” value in data set [1] was “inactive”. The “Tm shift, bromodomains” value in [2] is under 0.5 °C. The “Tm shift, lysine demethylases” value in data set [3] is under 0.5 °C. Moreover, the “agonist activity, M1” value on hM1 is on record as “no agonist activity”. Moreover, on hM2, the “agonist activity, M2” value is on record as “no agonist activity”. Also, in the data set on HEK293T/17 cells, the “cytotoxicity (CellTiter-Glo cell viability)” value is recorded as “no observable level of cytotoxicity”. In data set [4], the EC50 (as a rule, the midpoint of the concentration-response curve) is 50 to 100 nM. In addition, the “mobility of GFP-FLMBT by FRAP, in words” value in data set [5] is recorded as “found to increase”. Besides, in data set [6], the “effect on GFP-FLMBT foci formation, in words” value is “relatively ineffective at inhibiting foci formation; also recorded: could no longer be disrupted”. In addition, the “interaction between flag-3MBT and BCLAF1, in words” value in data set [7] was “substantially reduced; also recorded: disrupts the interaction”. The “interaction between flag-FLMBT and BCLAF1, in words” value in [8] is “reduced to a lesser extent; also recorded: reduces the interaction”. Also, the “antagonism of L3MBTL3 (3MBT) H4K20me2 pull-down, in words” value at L3MBTL3 (3MBT) [9] is reported as “nanomolar potency”. The “antagonism of 53BP1 H4K20me2 pull-down, in words” value on 53BP1 was “much weaker affinity; also recorded: micromolar antagonism”.

On to “BCLAF1 Kme peptide: K445me containing BCLAF1 peptide (residues 438-452) (YKSKVSLK(Me)GNRESDG)”, for which the “displacement of H4K20me2 from L3MBTL3 by AlphaScreen, in words” value in the data set with L3MBTL3 (3MBT) [10] was “effectively displaces H4K20me2”.
